Experimental data published in PubChem BioAssay AID179 (DTP/NCI, 2004).
The source made the active and inactive calls.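 The calls were made as follows: active = compounds giving half or more protection of infected cells from virus-caused growth loss, again on retest; inactive = the rest.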 Where a SMILES comes first, the peptide text is derived from it.

Tested on: CEM cells HIV-1 protection, formazan growth assay
Test: NCI AIDS Antiviral Assay
Settings: for IC50: measured here: growth of uninfected CEM cells
Method in brief: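 Soluble formazan readout of cell growth; CEM cells ± HIV-1; 5 drug concs. ≥50% protection → retest; ≥50% again = moderately active; reproducible 100% = confirmed active.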

| SMILES | EC50 [µM] | IC50 [µM] | outcome |
| --- | --- | --- | --- |
| COC(=O)c1ccccc1SSc1ccccc1C(=O)OC | > 200 | 18.6 |  |
| CCn1c2ccc(C(=O)CCCN3CCCCC3)cc2c2cc(C(=O)CCCN3CCCCC3)ccc21 | > 43.7 | 0.229 |  |
| Cc1ncc([N+](=O)[O-])n1CCNC(=O)Cn1ccnc1[N+](=O)[O-] | > 200 | > 200 |  |
| NC1=C(c2ccccc2)C(=O)c2ccccc21 | > 61.7 | > 61.7 |  |
| COC(=O)C(N)CSc1ccc([N+](=O)[O-])cc1[N+](=O)[O-] (stereo not given) | > 741 | 115 |  |
| CC(/C=C1\N=C(c2ccccc2)OC1=O)=C\c1ccccc1 | > 200 | 105 |  |
| CN(C)CCNC(=O)c1cccc2c(Nc3ccc(S(N)(=O)=O)cc3)c3ccccc3nc12 |  |  | inactive |
| CN(C)CCN=C1Nc2ccccc2C(=S)N2CSCC12 (stereo not given) | > 200 | > 200 |  |
| Cn1nc(-c2ccccc2)c2c(-c3ccccc3)c3cc(Cl)ccc3nc21 | > 100 | > 100 |  |
| S=c1nn[nH]c2ccccc12 | > 219 | > 219 |  |
| Cc1c(-c2ccccc2)nn2cc(-c3ccccc3)nnc12 | > 200 | 11 |  |
| NC1NCCC(=O)N1CCc1c[nH]c2ccccc12 (stereo not given) | > 200 | 36.3 |  |
| Clc1ccc(CN2COc3c(ccc4ccccc34)C2)cc1 | > 200 | 70.8 |  |
| CC1(Cl)C(=O)NC(=O)NC1O (stereo not given) | > 200 | > 200 |  |
| O=c1[nH]c2nc3ccccc3c(=O)n2/c1=C/c1cccs1 | > 200 | 110 |  |
| Nc1nc(SCC(=O)c2ccccc2)nc2nc3c(c(-c4ccccc4)c12)CCCC3 | > 100 | 66.1 |  |
| Cc1c(O)c(OC2OC(CO)C(O)C(O)C2O)cc2c1CC[C@@H]1C2(C)C(=O)C[C@]2(C)[C@@H]([C@@](C)(O)C3CCC(C)(C)O3)[C@H](O)C[C@@]12C (stereo not given in full) | > 200 | > 200 |  |
| CC(=O)NC(CC(C)C)C(=O)NC(CC(=O)O)C(=O)NC(CCCCN)C(=O)NC(C)C(=O)NC(CO)C(=O)NC(Cc1ccc(O)cc1)C(=O)NC(CO)C(=O)NC(C(=O)NC(CC(N)=O)C(=O)NC(Cc1cnc[nH]1)C(=O)NC(CC(C)C)C(N)=O)C(C)O (stereo not given) (Ac-LDKASYSTNHL-NH2; configuration not given here) | > 47.9 | > 47.9 |  |
| COc1ccc(CC2C(=O)NC(C)C(=O)N(C)C3Cc4ccc(cc4)Oc4cc(ccc4O)CC(C(=O)NC(C)C(=O)NC(C)C(=O)N2C)N(C)C3=O)cc1 (stereo not given) | > 0.2 | 0.0631 |  |

| SMILES | EC50 [µM] | IC50 [µM] | outcome |
| --- | --- | --- | --- |
| O=S1(=O)OC(c2ccc(O)cc2)(c2ccc(O)cc2)c2ccccc21 |  |  | inactive |
| CCc1c(Cc2ccccc2)n(COCCCO)c(=O)[nH]c1=O | 7.08 | 10 |  |
| COc1cc(C2c3cc4c(cc3OC(NN)C2C)OCO4)cc(OC)c1OC (stereo not given) | > 200 | 1 |  |
| CCOC(=O)C(C)c1nc2cc(C(F)(F)F)ccc2[nH]c1=O (stereo not given) | > 200 | 81.3 |  |
| COc1ccc(C2OC(=O)c3ccc4ccccc4c32)c(C)c1 (stereo not given) | > 44.7 | 24.5 |  |
| O=C(Nc1ccc(S(=O)(=O)c2ccc(NS(=O)(=O)Cc3ccccc3[N+](=O)[O-])cc2)cc1)c1ccccc1SSc1ccccc1C(=O)Nc1ccc(S(=O)(=O)c2ccc(NS(=O)(=O)Cc3ccccc3[N+](=O)[O-])cc2)cc1 | 28.2 | > 200 |  |
| COc1cc(C2NCCC(c3ccccc3)(c3ccccc3)N2)cc(OC)c1OC (stereo not given) | > 200 | 19.5 |  |
| O=C(CCCN1CC=C(n2c(=O)[nH]c3ccccc32)CC1)c1cccs1 | > 200 | 120 |  |
| CC(=O)N1C(=O)c2cc3ccccc3cc21 | > 200 | > 100 |  |
| O=C(CCC1CCCCN1)Nc1ccc2c(c1)C(=O)c1ccc(NC(=O)CCN3CCCCC3)cc1C2=O (stereo not given) |  |  | inactive |
| COc1ccc2c(c1)CCCN1Cc3cc(OC)c(OC)cc3CC21 (stereo not given) | > 200 | 87.1 |  |
| C=C1[C@H](OC(=O)C(C)C)[C@@H](OC(C)=O)[C@@H](OC(C)=O)C(C)(C)[C@@H]2O[C@H]2[C@@H](C)C(=O)[C@@]2(OC(C)=O)C[C@@](C)(OC(C)=O)[C@H](OC(C)=O)[C@@H]2[C@H]1OC(C)=O | > 200 | > 200 |  |
| CC#N.CC#N.COC(=O)[C@@H]1CN(C(=O)CCc2ccccc2)C(=O)[N-]1.COC(=O)[C@@H]1CN(C(=O)CCc2ccccc2)C(=O)[N-]1.COC(=O)[C@@H]1CN(C(=O)CCc2ccccc2)C(=O)[N-]1.COC(=O)[C@@H]1CN(C(=O)CCc2ccccc2)C(=O)[N-]1.[Rh+2].[Rh+2] | > 200 | 4.37 |  |
| CC/C(=N/O)C(C)C(=O)CCC(=O)Nc1ccc(Cl)cc1 (stereo not given) | > 83.2 | > 83.2 |  |
| C(=N\NC1=NCCN1)/c1ccc(-c2cn3cc(/C=N/NC4=NCCN4)ccc3n2)cc1 | > 53.7 | 3.72 |  |
| COc1ccc2nc3c(nc2c1)C(C)(C)C=C3c1ccc(Br)cc1 | > 100 | > 100 |  |
| O=c1cc(CNC2CC3CCC2C3)[nH]c(=O)[nH]1 (stereo not given) |  |  | inactive |
| C#CCOC(=O)C(=[N+]=[N-])C(=O)CC(C)C | > 200 | > 200 |  |
| O=C1Oc2ccccc2C(=O)/C1=C1/C=C(c2ccccc2)SS1 | > 200 | > 200 |  |

| SMILES | EC50 [µM] | IC50 [µM] | outcome |
| --- | --- | --- | --- |
| CS/C(=N\N=C(/C)c1ccccn1)SS/C(=N/N=C(\C)c1ccccn1)SC | > 2 | 0.00741 |  |
| O=C(c1ccccc1)c1ccsc1C(=O)O | > 200 | > 200 |  |
| c1ccc2c(c1)oc1cc3c(cc12)n1nnnc1c1cccn31 | > 200 | > 200 |  |
| Cc1ccccc1NC(=O)C(=O)Cc1cnc2ccccc2n1 | > 162 | > 162 |  |
| Cc1ccc(/C=C2\CCCC(CN3CCCCC3)C2=O)cc1 (stereo not given) | > 200 | 0.724 |  |
| Cc1ccc(Nc2c3c(c(C#N)c4nc5ccccc5n24)CCCC3)cc1 | > 200 | 10.7 |  |
| CC1(C)OC(=O)C(=C=[N-])/C1=C\[n+]1ccccc1 | > 417 | > 417 |  |
| CNC1C(OC2C(OC3C(O)C(O)C(O)C(O)C3O)OC(C)C2(O)CO)OC(CO)C(O)C1O (stereo not given) (tested in a mixture with another compound) |  |  | inactive |
| Oc1ccc(O)c(-n2cccn2)c1 | > 14.1 | 7.24 |  |
| CCOC(=O)NC(=O)c1cn(CCCCCCCCCCC(=O)N2CCN(CCn3cc(C(=O)NC(=O)OCC)c(=O)[nH]c3=O)CC2)c(=O)[nH]c1=O |  |  | inactive |
| CC1(c2cccc3c2C2(O)C=CC4(CCC32)OCCO4)OCCO1 (stereo not given) | 123 | 174 |  |
| O=C(c1ccccc1)c1oc2ccc(Br)cc2c1-c1cnn(-c2ccccc2)c1 |  |  | inactive |
| COC(=O)N/N=C(/Cc1occc(=O)c1O)C(=O)Nc1ccc([N+](=O)[O-])cc1[N+](=O)[O-] | > 575 | > 575 |  |
| O=Cc1[nH]c(=O)[nH]c(=O)c1C(=O)O | > 200 | > 200 |  |
| CC(=O)OC1CCC2(C)CC3C=CC2(OO3)C1(C)C (stereo not given) | > 200 | 10.7 |  |
| c1ccc2c3c(ccc2c1)CSCc1ccc2ccccc2c1-3 | > 200 |  |  |
| CCOc1ccccc1C1N2CCN(CC2)C(c2ccccc2OCC)N2CCN1CC2 (stereo not given) |  |  | inactive |
| COCCCNC1=C(C#N)C(=O)NC2(CCCC2)S1 | > 525 | > 525 |  |
| C[n+]1c(/C=C/c2ccc(/C=N/NC(=O)c3ccc(C(=O)N/N=C/c4ccc(/C=C/c5cn6ccccc6[n+]5C)cc4)cc3)cc2)cn2ccccc21 | > 3.55 | > 3.55 |  |
